Test results reported in PubChem BioAssay (NCI).
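The compound was tested at five concentrations on cells cultured in 96-well plates, with a 48-hour exposure period. GI50 is the concentration that inhibits growth by half. TGI is the concentration that stops growth completely.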

Assays:
Test in all cases: NCI tumour cell line growth inhibition, 48 h
NCI/ADR-RES ovarian = test system: NCI/ADR-RES ovarian
U251 CNS = test system: U251 CNS
ACHN renal = test system: ACHN renal
NCI-H23 lung = test system: NCI-H23 lung
SK-MEL-28 melanoma = test system: SK-MEL-28 melanoma
K-562 leukemia = test system: K-562 leukemia
SNB-19 CNS = test system: SNB-19 CNS
NCI-H226 lung = test system: NCI-H226 lung
CAKI-1 renal = test system: CAKI-1 renal
SR leukemia = test system: SR leukemia
SN12C renal = test system: SN12C renal
MALME-3M melanoma = test system: MALME-3M melanoma
PC-3 prostate = test system: PC-3 prostate
HCC-2998 colon = test system: HCC-2998 colon
OVCAR-8 ovarian = test system: OVCAR-8 ovarian
HOP-92 NSCLC = test system: HOP-92 NSCLC
HT29 colon = test system: HT29 colon
UACC-62 melanoma = test system: UACC-62 melanoma
NCI-H522 lung = test system: NCI-H522 lung
CCRF-CEM leukemia = test system: CCRF-CEM leukemia
SK-MEL-2 melanoma = test system: SK-MEL-2 melanoma
SF-295 CNS = test system: SF-295 CNS
RPMI-8226 leukemia = test system: RPMI-8226 leukemia
SNB-75 CNS = test system: SNB-75 CNS
SK-MEL-5 melanoma = test system: SK-MEL-5 melanoma
KM12 colon = test system: KM12 colon
HCT-15 colon = test system: HCT-15 colon
NCI-H460 lung = test system: NCI-H460 lung
HS 578T breast = test system: HS 578T breast
HCT-116 colon = test system: HCT-116 colon
OVCAR-5 ovarian = test system: OVCAR-5 ovarian
HL-60(TB) leukemia = test system: HL-60(TB) leukemia
SF-539 CNS = test system: SF-539 CNS
SF-268 CNS = test system: SF-268 CNS
T-47D breast = test system: T-47D breast
IGROV1 ovarian = test system: IGROV1 ovarian
TK-10 renal = test system: TK-10 renal
UO-31 renal = test system: UO-31 renal
COLO 205 colon = test system: COLO 205 colon
OVCAR-3 ovarian = test system: OVCAR-3 ovarian
MOLT-4 leukemia = test system: MOLT-4 leukemia
MCF7 breast = test system: MCF7 breast
SW-620 colon = test system: SW-620 colon
UACC-257 melanoma = test system: UACC-257 melanoma
HOP-62 NSCLC = test system: HOP-62 NSCLC
SK-OV-3 ovarian = test system: SK-OV-3 ovarian
DU-145 prostate = test system: DU-145 prostate
BT-549 breast = test system: BT-549 breast
M14 melanoma = test system: M14 melanoma
786-0 renal = test system: 786-0 renal
MDA-MB-435 = test system: MDA-MB-435
RXF 393 renal = test system: RXF 393 renal
EKVX NSCLC = test system: EKVX NSCLC
A549 NSCLC = test system: A549 NSCLC
MDA-MB-231 breast = test system: MDA-MB-231 breast
OVCAR-4 ovarian = test system: OVCAR-4 ovarian
LOX IMVI melanoma = test system: LOX IMVI melanoma

CC[C@H](C)[C@H](NC(=O)c1ccccn1)C(=O)N(C)[C@H](C[C@@H](OC(C)=O)c1nc(C(=O)N[C@@H](Cc2ccccc2)C[C@H](C)C(=O)OC)cs1)C(C)C
GI50 (NCI/ADR-RES ovarian): 25.3 µM
TGI (NCI/ADR-RES ovarian): > 100 µM
GI50 (U251 CNS): 28.5 µM
TGI (U251 CNS): > 100 µM
GI50 (ACHN renal): 27.3 µM
TGI (ACHN renal): > 100 µM
GI50 (NCI-H23 lung): 24.6 µM
TGI (NCI-H23 lung): > 100 µM
GI50 (SK-MEL-28 melanoma): 35.1 µM
TGI (SK-MEL-28 melanoma): > 100 µM
GI50 (K-562 leukemia): 17.5 µM
TGI (K-562 leukemia): > 100 µM
GI50 (SNB-19 CNS): 33.8 µM
TGI (SNB-19 CNS): > 100 µM
GI50 (NCI-H226 lung): 45 µM
TGI (NCI-H226 lung): > 100 µM
GI50 (CAKI-1 renal): 30.6 µM
TGI (CAKI-1 renal): > 100 µM
GI50 (SR leukemia): 3.88 µM
TGI (SR leukemia): 81 µM
GI50 (SN12C renal): 30 µM
TGI (SN12C renal): > 100 µM
GI50 (MALME-3M melanoma): 15.7 µM
TGI (MALME-3M melanoma): > 100 µM
GI50 (PC-3 prostate): 23.6 µM
TGI (PC-3 prostate): > 100 µM
GI50 (HCC-2998 colon): 19.1 µM
TGI (HCC-2998 colon): > 100 µM
GI50 (OVCAR-8 ovarian): 33.3 µM
TGI (OVCAR-8 ovarian): > 100 µM
GI50 (HOP-92 NSCLC): 6.88 µM
TGI (HOP-92 NSCLC): 80.9 µM
GI50 (HT29 colon): 26.3 µM
TGI (HT29 colon): > 100 µM
GI50 (UACC-62 melanoma): 4.56 µM
TGI (UACC-62 melanoma): > 100 µM
GI50 (NCI-H522 lung): 8.93 µM
TGI (NCI-H522 lung): 38.9 µM
GI50 (CCRF-CEM leukemia): 21.5 µM
TGI (CCRF-CEM leukemia): > 100 µM
GI50 (SK-MEL-2 melanoma): 12.8 µM
TGI (SK-MEL-2 melanoma): > 100 µM
GI50 (SF-295 CNS): 21.7 µM
TGI (SF-295 CNS): > 100 µM
GI50 (RPMI-8226 leukemia): 6.98 µM
TGI (RPMI-8226 leukemia): > 100 µM
GI50 (SNB-75 CNS): 5.73 µM
TGI (SNB-75 CNS): 98 µM
GI50 (SK-MEL-5 melanoma): 10.7 µM
TGI (SK-MEL-5 melanoma): 42.5 µM
GI50 (KM12 colon): 8.08 µM
TGI (KM12 colon): > 100 µM
GI50 (HCT-15 colon): 21.7 µM
TGI (HCT-15 colon): > 100 µM
GI50 (NCI-H460 lung): 18.6 µM
TGI (NCI-H460 lung): 57 µM
GI50 (HS 578T breast): 12.8 µM
TGI (HS 578T breast): 45.7 µM
GI50 (HCT-116 colon): 11.2 µM
TGI (HCT-116 colon): 50.3 µM
GI50 (OVCAR-5 ovarian): 27.9 µM
TGI (OVCAR-5 ovarian): > 100 µM
GI50 (HL-60(TB) leukemia): 7.89 µM
TGI (HL-60(TB) leukemia): 54 µM
GI50 (SF-539 CNS): 17.1 µM
TGI (SF-539 CNS): 50.8 µM
GI50 (SF-268 CNS): 29 µM
TGI (SF-268 CNS): > 100 µM
GI50 (T-47D breast): 43 µM
TGI (T-47D breast): > 100 µM
GI50 (IGROV1 ovarian): 11.6 µM
TGI (IGROV1 ovarian): > 100 µM
GI50 (TK-10 renal): 54.1 µM
TGI (TK-10 renal): > 100 µM
GI50 (UO-31 renal): 18 µM
TGI (UO-31 renal): > 100 µM
GI50 (COLO 205 colon): 16.8 µM
TGI (COLO 205 colon): 42 µM
GI50 (OVCAR-3 ovarian): 10.9 µM
TGI (OVCAR-3 ovarian): 40.7 µM
GI50 (MOLT-4 leukemia): 24.7 µM
TGI (MOLT-4 leukemia): 90.2 µM
GI50 (MCF7 breast): 4.92 µM
TGI (MCF7 breast): > 100 µM
GI50 (SW-620 colon): 23.1 µM
TGI (SW-620 colon): > 100 µM
GI50 (UACC-257 melanoma): 36.8 µM
TGI (UACC-257 melanoma): > 100 µM
GI50 (HOP-62 NSCLC): 26.1 µM
TGI (HOP-62 NSCLC): > 100 µM
GI50 (SK-OV-3 ovarian): 33.4 µM
TGI (SK-OV-3 ovarian): > 100 µM
GI50 (DU-145 prostate): 34.7 µM
TGI (DU-145 prostate): > 100 µM
GI50 (BT-549 breast): 11.4 µM
TGI (BT-549 breast): 42.5 µM
GI50 (M14 melanoma): 9.25 µM
TGI (M14 melanoma): 38.4 µM
GI50 (786-0 renal): 16.1 µM
TGI (786-0 renal): 59.7 µM
GI50 (MDA-MB-435): 2.08 µM
TGI (MDA-MB-435): 5.64 µM
GI50 (RXF 393 renal): 7.56 µM
TGI (RXF 393 renal): 60.4 µM
GI50 (EKVX NSCLC): 35.3 µM
TGI (EKVX NSCLC): > 100 µM
GI50 (A549 NSCLC): 48.9 µM
TGI (A549 NSCLC): > 100 µM
GI50 (MDA-MB-231 breast): 15.7 µM
TGI (MDA-MB-231 breast): 48.2 µM
GI50 (OVCAR-4 ovarian): 31.1 µM
TGI (OVCAR-4 ovarian): > 100 µM
GI50 (LOX IMVI melanoma): 22.3 µM
TGI (LOX IMVI melanoma): > 100 µM
